In ChEMBL document CHEMBL3259799, “New melatonin-N,N-dibenzyl(N-methyl)amine hybrids: potent neurogenic agents with antioxidant, cholinergic, and neuroprotective properties as innovative drugs for Alzheimer's disease” (J Med Chem, 2014):
The source made the active and inactive calls. No cut-off for these calls is given here.

Assays:
[1] = Cytotoxicity against human SH-SY5Y cells assessed as cell viability at 1 uM after 24 hrs by LDH assay relative to control; type: cell-based; details: read-out: Activity
[2] = Permeability of the compound by PAMPA; type: physicochemical; details: read-out: permeability
[3] = system: SH-SY5Y; test: Neuroprotective activity in human SH-SY5Y cells assessed as protection from rotenone/oligomycin A-induced mitochondrial ROS at 1 uM incubated for 24 hrs prior to rotenone/oligomycin A challenge measured after 24 hrs by LDH assay; type: functional
[4] = target: Acetylcholinesterase (Homo sapiens, UniProt P22303)
Description: Inhibition of human recombinant AchE using acetylthiocholine iodide as substrate incubated for 5 mins prior to substrate addition measured after 5 mins by Ellman method

[5] = Antioxidant activity assessed as oxygen radical absorbance capacity after 15 mins fluorescence assay relative to trolox; type: functional
[6] = species: Rattus norvegicus; test: Neurogenic activity in Wistar rat Primary neural stem cells assessed as cell maturation by measuring MAP-2 at 10 uM after 48 hrs by DAPI staining-based immunohistochemistry; type: functional
[7] = species: Rattus norvegicus; test: Neurogenic activity in Wistar rat Primary neural stem cells assessed as cell maturation by measuring TuJ1 at 10 uM after 48 hrs by DAPI staining-based immunohistochemistry; type: functional
[8] = species: Homo sapiens; test: Inhibition of human BuChE using butyrylthiocholine as substrate at 10 uM incubated for 5 mins prior to substrate addition measured after 5 mins by Ellman method
[9] = system: SH-SY5Y; test: Cytotoxicity against human SH-SY5Y cells at 10 uM after 48 hrs by LDH assay relative to control; type: cell-based
[10] = system: SH-SY5Y; test: Cytotoxicity against human SH-SY5Y cells at 10 uM after 48 hrs by MTT assay relative to control; type: cell-based

Chain of Acetylcholinesterase (P22303 whole entry): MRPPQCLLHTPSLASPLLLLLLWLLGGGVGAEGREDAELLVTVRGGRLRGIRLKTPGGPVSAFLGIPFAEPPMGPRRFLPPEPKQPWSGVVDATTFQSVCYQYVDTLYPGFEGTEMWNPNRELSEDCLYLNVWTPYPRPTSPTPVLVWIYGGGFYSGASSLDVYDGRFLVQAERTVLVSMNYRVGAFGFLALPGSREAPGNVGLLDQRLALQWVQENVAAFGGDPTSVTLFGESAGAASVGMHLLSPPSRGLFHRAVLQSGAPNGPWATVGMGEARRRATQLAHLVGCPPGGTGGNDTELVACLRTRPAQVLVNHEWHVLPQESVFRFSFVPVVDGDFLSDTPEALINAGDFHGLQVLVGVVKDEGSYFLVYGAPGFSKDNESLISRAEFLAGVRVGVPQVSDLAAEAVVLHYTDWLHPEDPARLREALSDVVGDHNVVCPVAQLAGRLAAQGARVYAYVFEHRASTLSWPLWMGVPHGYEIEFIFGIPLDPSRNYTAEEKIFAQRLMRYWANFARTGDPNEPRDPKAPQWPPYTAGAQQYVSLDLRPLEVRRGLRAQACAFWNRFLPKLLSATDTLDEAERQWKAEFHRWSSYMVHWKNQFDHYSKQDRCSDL

SMILES | viability at 24 h, 1 µM [1] | Papp [2] | Activity [3] | IC50 [4] | Activity [5] | Activity [6] | Activity [7] | inhibition [8] | Activity [9] | Activity [10]
CN(Cc1ccccc1)Cc1ccc(C(=O)NCCc2c[nH]c3cc(F)ccc23)cc1 | 100% | 6.6 ×10⁻⁶ cm/s | 12% | 2.5 µM | 2.1 | – | – | – | – | –
CN(Cc1ccccc1)Cc1ccc(C(=O)NCCc2c[nH]c3ccc(O)cc23)cc1 | 100% | 5 ×10⁻⁶ cm/s | 12% | 4.2 µM | 4.3 | – | – | – | – | –
COc1ccc2[nH]cc(CCNC(C)=O)c2c1 | – | – | – | – | 2.4 | Active | Active | – | – | –
COc1ccc2c(CCNC(=O)c3ccc(CN(C)Cc4cccc(Cl)c4)cc3)c[nH]c2c1 | 100% | 7.9 ×10⁻⁶ cm/s | 12% | 2.1 µM | 1.8 | – | – | 22% | – | –
CN(Cc1ccc(C(=O)NCCc2c[nH]c3ccccc23)cc1)Cc1cccc(Cl)c1 | 100% | 7.1 ×10⁻⁶ cm/s | 12% | 5.1 µM | 2.9 | – | – | 38% | – | –
CN(Cc1ccccc1)Cc1ccc(C(=O)NCCc2c[nH]c3ccccc23)cc1 | 100% | 7.4 ×10⁻⁶ cm/s | 12% | 1.9 µM | 3.2 | – | – | – | – | –
COc1ccccc1CN(C)Cc1ccc(C(=O)NCCc2c[nH]c3ccccc23)cc1 | 100% | 8.8 ×10⁻⁶ cm/s | 12% | 4.7 µM | 2.9 | Active | Active | – | Non-toxic | Non-toxic
COc1cccc(CN(C)Cc2ccc(C(=O)NCCc3c[nH]c4ccc(OC)cc34)cc2)c1 | 100% | 8.7 ×10⁻⁶ cm/s | 40% | 6.8 µM | 2.5 | Active | Active | 45% | Non-toxic | Non-toxic
CC(=O)NCCc1c(Cc2ccccc2)[nH]c2ccccc12 | – | – | – | – | – | inactive | inactive | – | – | –
COc1ccc2c(CCNC(=O)c3ccc(CN(C)Cc4ccccc4)cc3)c[nH]c2c1 | 100% | 7.2 ×10⁻⁶ cm/s | 12% | 4.1 µM | 1.5 | – | – | – | – | –
COc1cccc(CN(C)Cc2ccc(C(=O)NCCc3c[nH]c4ccccc34)cc2)c1 | 100% | 8.8 ×10⁻⁶ cm/s | 12% | 3.8 µM | 2.7 | – | – | – | – | –
COc1ccc2[nH]cc(CCNC(=O)c3ccc(CN(C)Cc4ccccc4Cl)cc3)c2c1 | 100% | 5.9 ×10⁻⁶ cm/s | 27% | 2.6 µM | 2.5 | – | – | 37% | – | –
COc1ccc2[nH]cc(CCNC(=O)c3ccc(CN(C)Cc4ccccc4)cc3)c2c1 | 100% | 7.1 ×10⁻⁶ cm/s | 36% | 6.1 µM | 2.5 | Active | Active | – | Non-toxic | Non-toxic
COc1ccc2[nH]cc(CCNC(=O)c3ccc(CN(C)Cc4cccc(Cl)c4)cc3)c2c1 | 100% | 7.9 ×10⁻⁶ cm/s | 12% | 5.6 µM | 2.6 | – | – | 38% | – | –
CN(Cc1ccc(C(=O)NCCc2c[nH]c3ccccc23)cc1)Cc1ccccc1Cl | 100% | 5.8 ×10⁻⁶ cm/s | 12% | 3.8 µM | 2.8 | – | – | 38% | – | –
COc1ccc2[nH]cc(CCNC(=O)c3ccc(CN(C)Cc4ccccc4OC)cc3)c2c1 | 100% | 9.9 ×10⁻⁶ cm/s | 12% | 5.4 µM | 2.4 | – | – | 47% | – | –
